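Grown in 96-well plates, cells were treated for 48 hours with each compound at five concentrations. Insufficient inhibition: endpoint recorded as highest concentration tested. GI50 is the concentration that inhibits growth by half.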 Active and inactive are the calls of the source. Rule as the data show it: active = GI50 up to about 1.1 µM and inactive = higher.
Assays:
Experiment in all cases: NCI anticancer screen, dose series, 48 h
786-0 = tested on: 786-0
ACHN = tested on: ACHN
BT-549 = tested on: BT-549
COLO 205 = tested on: COLO 205
DU-145 = tested on: DU-145
HCT-15 = tested on: HCT-15
HOP-92 = tested on: HOP-92
HT-29 = tested on: HT-29
Hs-578T = tested on: Hs-578T
KM12 = tested on: KM12
MCF7 = tested on: MCF7
MDA-MB-231 = tested on: MDA-MB-231
MDA-MB-435 = tested on: MDA-MB-435
NCI-H460 = tested on: NCI-H460
OVCAR-5 = tested on: OVCAR-5
SF-295 = tested on: SF-295
SK-MEL-2 = tested on: SK-MEL-2
SK-MEL-5 = tested on: SK-MEL-5
UACC-257 = tested on: UACC-257
UO-31 = tested on: UO-31

| SMILES | GI50 (786-0) | GI50 (ACHN) | GI50 (BT-549) | GI50 (COLO 205) | GI50 (DU-145) | GI50 (HCT-15) | GI50 (HOP-92) | GI50 (HT-29) | GI50 (Hs-578T) | GI50 (KM12) | GI50 (MCF7) | GI50 (MDA-MB-231) | GI50 (MDA-MB-435) | GI50 (NCI-H460) | GI50 (OVCAR-5) | GI50 (SF-295) | GI50 (SK-MEL-2) | GI50 (SK-MEL-5) | GI50 (UACC-257) | GI50 (UO-31) |
| --- | --- | --- | --- | --- | --- | --- | --- | --- | --- | --- | --- | --- | --- | --- | --- | --- | --- | --- | --- | --- |
| CCCCCCCCCOC(=O)c1cnc(Cl)cn1 | 72.4 µM (inactive) | 19.4 µM (inactive) | 26.5 µM (inactive) | 22.2 µM (inactive) | 19.6 µM (inactive) | 17.4 µM | 42.4 µM (inactive) | 29 µM (inactive) | 22.8 µM (inactive) | 17.5 µM (inactive) | 25 µM (inactive) | 18.5 µM (inactive) | 19.9 µM (inactive) | 20.8 µM (inactive) | 29 µM (inactive) | 17.6 µM (inactive) | 22.1 µM (inactive) | 17.6 µM (inactive) | 23.6 µM (inactive) | 18.5 µM (inactive) |
| Nc1ccc(S(=O)(=O)NCc2nccs2)cc1 | 28.3 µM (inactive) | 23.4 µM (inactive) | 20.1 µM (inactive) | 18.4 µM (inactive) | 29 µM (inactive) | 26.7 µM | 18.8 µM (inactive) | 16.7 µM (inactive) | 27.3 µM (inactive) | 20.9 µM (inactive) | 23.4 µM (inactive) | 24.9 µM (inactive) | 19.6 µM (inactive) | 26.5 µM (inactive) | 17.9 µM (inactive) | 32 µM (inactive) | 20 µM (inactive) | 15.8 µM (inactive) | 17.7 µM (inactive) | 22.3 µM (inactive) |
| Cc1cc(O)c2cc3c(O)c(O)ccc3cc2c1 | 3.95 µM (inactive) | 1.77 µM (inactive) | 0.726 µM (active) | 0.351 µM (active) | 3.91 µM (inactive) | 1.2 µM | 2.61 µM (inactive) | 2.54 µM (inactive) | 0.465 µM (active) | 0.561 µM (active) | 2.27 µM (inactive) | 1.25 µM (inactive) | 3.63 µM (inactive) | 0.524 µM (active) | 3.17 µM (inactive) | 0.619 µM (active) | 0.895 µM (active) | 0.243 µM (active) | 3.2 µM (inactive) | 0.7 µM (active) |
| COC(=O)c1c(CC(Cc2ccc3c(c2)CCCC3)C(=O)OC)ccc2c1CCCC2 (stereo not given) | > 100 µM (inactive) | 45.1 µM (inactive) | > 100 µM (inactive) | 19.9 µM (inactive) | > 100 µM (inactive) | 46.2 µM | 23 µM (inactive) | 24.4 µM (inactive) | > 100 µM (inactive) | 40.3 µM (inactive) | 20.6 µM (inactive) | > 100 µM (inactive) | 42.4 µM (inactive) | 88.5 µM (inactive) | > 100 µM (inactive) | > 100 µM (inactive) | > 100 µM (inactive) | 29.4 µM (inactive) | 24 µM (inactive) | 82.8 µM (inactive) |
| CC(C)(C)c1cc(C2COC(=O)COCC(=O)OCCOCCOCCO2)cc(C(C)(C)C)c1O (stereo not given) | 21.4 µM (inactive) | 19.6 µM (inactive) | > 57.5 µM (inactive) | > 100 µM (inactive) | 21 µM (inactive) | > 100 µM | 22.9 µM (inactive) | 98.9 µM (inactive) | 17.9 µM (inactive) | > 100 µM (inactive) | > 100 µM (inactive) | 44.6 µM (inactive) | 20.5 µM (inactive) | 30.9 µM (inactive) | 28.4 µM (inactive) | 23.6 µM (inactive) | 32.1 µM (inactive) | > 100 µM (inactive) | > 61.7 µM (inactive) | 18.6 µM (inactive) |
| Clc1ccc(/C=C/c2nc3ccccc3s2)cc1Cl | 15 µM (inactive) | 29.4 µM (inactive) | 30.1 µM (inactive) | 54.1 µM (inactive) | > 100 µM (inactive) | > 100 µM | 18.9 µM (inactive) | > 100 µM (inactive) | 23.7 µM (inactive) | 81.1 µM (inactive) | 15.1 µM (inactive) | 16.2 µM (inactive) | > 100 µM (inactive) | 53.5 µM (inactive) | 80.7 µM (inactive) | 28.1 µM (inactive) | > 10 µM (inactive) | 27.2 µM (inactive) | > 100 µM (inactive) | 22.1 µM (inactive) |
| NNC(=O)c1cc(Cl)ccc1NC(=O)C12CC3CC(CC(C3)C1)C2 | 21.4 µM (inactive) | 23.6 µM (inactive) | 37.4 µM (inactive) | 33.6 µM (inactive) | 44.8 µM (inactive) | 27.8 µM | 26.3 µM (inactive) | 20.2 µM (inactive) | 31.8 µM (inactive) | 30.1 µM (inactive) | 27.2 µM (inactive) | 51.2 µM (inactive) | 29.3 µM (inactive) | 30.9 µM (inactive) | 15.6 µM (inactive) | 39.5 µM (inactive) | 37.8 µM (inactive) | 25.9 µM (inactive) | 29.3 µM (inactive) | 17.1 µM (inactive) |
| c1ccc(/C(=N/Nc2nc3ccccc3s2)C2CCCCC2)nc1 | 7.29 µM (inactive) | 6.58 µM (inactive) | 18.6 µM (inactive) | 1.57 µM (inactive) | 12.6 µM (inactive) | 2.77 µM | 7.48 µM (inactive) | 0.569 µM (active) | 19.6 µM (inactive) | 10 µM (inactive) | 1.23 µM (inactive) | 11.3 µM (inactive) | 14.8 µM (inactive) | 7.83 µM (inactive) | 3.26 µM (inactive) | 15.8 µM (inactive) | 15.7 µM (inactive) | 6.24 µM (inactive) | 4.32 µM (inactive) | 3.04 µM (inactive) |
| CC(C)(C)N1CC1CNC(=O)C(=O)NCC1CN1C(C)(C)C (stereo not given) | 1.4 µM (inactive) | 1.29 µM (inactive) | 29.9 µM (inactive) | 3.79 µM (inactive) | 7.62 µM (inactive) | 3.74 µM | 9.51 µM (inactive) | 2.45 µM (inactive) | 91 µM (inactive) | 4.74 µM (inactive) | 9.31 µM (inactive) | 63.4 µM (inactive) | 38.8 µM (inactive) | 1.53 µM (inactive) | 2.62 µM (inactive) | 3.33 µM (inactive) | 5.33 µM (inactive) | 16.7 µM (inactive) | 5.05 µM (inactive) | 6.61 µM (inactive) |
| CSc1ccc(/C=C/C(=O)c2nc3ccccc3[nH]2)cc1 | 12.7 µM (inactive) | 18.9 µM (inactive) | 14.8 µM (inactive) | 18.1 µM (inactive) | 1.87 µM (inactive) | 11.8 µM | 77.1 µM (inactive) | 15.7 µM (inactive) | 37.2 µM (inactive) | 14.5 µM (inactive) | 2.64 µM (inactive) | 10 µM (inactive) | 6.22 µM (inactive) | 18.4 µM (inactive) | 25.2 µM (inactive) | 24.3 µM (inactive) | 18.1 µM (inactive) | 21.2 µM (inactive) | 20.6 µM (inactive) | 3.66 µM (inactive) |
| Oc1cc(-c2ccccc2)cn2c1nc1ccccc12 | 3.21 µM (inactive) | 6.41 µM (inactive) | 4.55 µM (inactive) | 21.3 µM (inactive) | 4.55 µM (inactive) | 0.643 µM | > 25.5 µM (inactive) | 8.63 µM (inactive) | 2.19 µM (inactive) | 1.5 µM (inactive) | 1.22 µM (inactive) | 0.382 µM (active) | 0.189 µM (active) | 0.76 µM (active) | > 100 µM (inactive) | 6 µM (inactive) | 2.11 µM (inactive) | 0.476 µM (active) | > 63.5 µM (inactive) | 2.64 µM (inactive) |
| O=c1[nH]nc(-c2ccccc2)n1/N=C\c1ccccc1 | > 100 µM (inactive) | > 100 µM (inactive) | > 100 µM (inactive) | > 100 µM (inactive) | > 100 µM (inactive) | > 100 µM | > 100 µM (inactive) | > 100 µM (inactive) | > 100 µM (inactive) | > 100 µM (inactive) | > 100 µM (inactive) | > 100 µM (inactive) | > 100 µM (inactive) | > 100 µM (inactive) | > 100 µM (inactive) | 29 µM (inactive) | > 100 µM (inactive) | > 100 µM (inactive) | > 100 µM (inactive) | > 100 µM (inactive) |
| Nn1c(Cc2ccc([N+](=O)[O-])cc2)n[nH]c1=O | > 100 µM (inactive) | > 100 µM (inactive) | > 100 µM (inactive) | > 100 µM (inactive) | > 100 µM (inactive) | > 100 µM | > 100 µM (inactive) | > 100 µM (inactive) | > 100 µM (inactive) | > 100 µM (inactive) | > 100 µM (inactive) | > 100 µM (inactive) | > 100 µM (inactive) | > 100 µM (inactive) | > 100 µM (inactive) | > 100 µM (inactive) | > 100 µM (inactive) | > 100 µM (inactive) | > 100 µM (inactive) | > 100 µM (inactive) |
| CCOC(=O)C(NC(=O)c1cccc(Cl)c1)(N1CCN(c2cc3c(cc2F)c(=O)c(C(=O)O)cn3CC)CC1)C(F)(F)F (stereo not given) | 14.7 µM (inactive) | 15.7 µM (inactive) | 19.4 µM (inactive) | 18.1 µM (inactive) | 25.4 µM (inactive) | 17.6 µM | 13.8 µM (inactive) | 17.6 µM (inactive) | 15.6 µM (inactive) | 11.7 µM (inactive) | 13.8 µM (inactive) | 15.8 µM (inactive) | 14.5 µM (inactive) | 22.3 µM (inactive) | 17.4 µM (inactive) | 18.7 µM (inactive) | 13.5 µM (inactive) | 14.2 µM (inactive) | 27.4 µM (inactive) | 19.2 µM (inactive) |
